These results are taken from doi:10.1101/2020.10.07.312850v1 (bioRxiv, 2020).

Non-standard residues stand in square brackets, D forms with d. Residues, ends and D or L forms follow the SMILES beside them. *: point of attachment. Palmitoyl = CCCCCCCCCCCCCCCC(=O)* Bounds are passed on as bounds.

The conditions of data set [1]: chemical penetration enhancers, cited from earlier work; for Solubility: solvent and source not given; for LogP: source not given.
A short description of data set [2]: Peptide human skin retention after 24 h. The format is in vitro ADME.
For a further data set, the system named is melanin. Conditions: 16 weeks of twice daily treatment; reference not given; cited from earlier work.
The test system of the next data set is mushroom tyrosinase. Conditions: cited from earlier work.
A further data set concerns human tyrosinase. Conditions: cited from earlier work.
Data set [3] can be described thus: In vitro skin permeation testing, Franz type diffusion cells. Conditions: 5% (w/v) in PG, human epidermis, Franz cell, 32 °C, 24 h. The format is in vitro ADME.

A word on the Solubility: it is the dissolved amount per volume that the medium holds. One may read the LogP as the decadic logarithm of the partition coefficient of the neutral form, usually between octanol and water. Regarding `CCCCCCCC/C=C\CCCCCCCC(=O)O` [Oleic acid], in data set [1], the Solubility was 2 µg/mL and the lipophilicity (LogP) was 7.4 ± 0.2.
Regarding `CC12CCC(CC1=O)C2(C)C` (centres unmarked) [Camphor], in data set [1], the Solubility was 1100 µg/mL and the lipophilicity (LogP) is reported as 2.1 ± 0.3.
Regarding “YRSRKYSSWY [Native peptide, decapeptide-12]”, in data set [2] (MN patch, human epidermis, Franz cell, 32 °C, 24 h, HPLC-UV 280 nm, triplicates), the “Skin retention of peptide after 24 h” value is reported as “No peptides were detected”. Further, the “Efficacy in reducing content of melanin” value in the data set with melanin is reported as “more than 50%”. Besides, the “Competitive inhibition compared with hydroquinone” value with mushroom tyrosinase and in the data set on human tyrosinase was “stronger competitive inhibition effect” throughout.
`CC1CCC(C(C)C)C(O)C1` (centres unmarked) [Menthol]: in data set [1], the Solubility is 1500 µg/mL and the log partition coefficient (LogP) was 3.2 ± 0.2.
With `CCCCCCCCCCCCCCCC(=O)N[C@@H](Cc1ccc(O)cc1)C(=O)N[C@@H](CCCNC(=N)N)C(=O)N[C@@H](CO)C(=O)N[C@@H](CCCNC(=N)N)C(=O)N[C@@H](CCCCN)C(=O)N[C@H](Cc1ccc(O)cc1)C(=O)N[C@@H](CO)C(=O)N[C@@H](CO)C(=O)N[C@@H](Cc1c[nH]c2ccccc12)C(=O)N[C@@H](Cc1ccc(O)cc1)C(N)=O` [Palm-peptide] (Palmitoyl-YRSRK[dY]SSWY-NH2), the entries for the “Effect of CPE on skin permeation” value in data set [3] (menthol) and in data set [3] (oleic acid) were “enhancing effect” and “inhibitory effects”, respectively. For the same compound, the “Percentage of peptide retained inside skin (dose-normalised)” value in data set [2] (MN patch, human epidermis, 24 h) is reported as less than 0.1%. Also, the “Highest peptide concentration in skin” value in data set [2] (estimated from skin retention after 24 h) was 9.0 µg/g.
